Test results reported in patent publication US20100234455A1, “Histone Deacetylase Inhibitors” (Errant Gene Therapeutics, LLC, priority 2004, published 2010).

Key:
PC-3 cells = assay: Bax and p21 activation in PC-3 cells (p53-/-, no HDAC2); format: cell-based; details: do not express HDAC2
[1] = tested on: LNCaP cells (human prostate cancer cells); assay: p53 acetylation, p21 and Bax effects in LNCaP cells; format: cell-based
tumors = details: cited from earlier work
HDAC = details: cited from earlier work
rat fibroblasts = details: cited from earlier work

Compound | p53 dependent activation of Bax (PC-3 cells) | p53 independent p21 activation (PC-3 cells) | level of histone acetylation [1] | Bax mitochondrial translocation and cleavage ([1]; LNCaP cells) | cell cycle arrest ([1]; LNCaP cells) | degradation of HDAC2 ([1]; LNCaP cells) | levels of total p53 ([1]; LNCaP cells) | p21 levels ([1]; LNCaP cells) | steady state level of cytosolic Bax ([1]; LNCaP cells) | acetylation of p53 at Lys320 ([1]; Lys320) | acetylation of p53 at Lys373 and Lys382 ([1]; Lys373 and Lys382) | formation of tumors in mice (tumors) | HDAC activity (HDAC) | cell cycle arrest of rat fibroblasts (rat fibroblasts)
O=C(C=CC=CC=Cc1ccccc1)NO [7-phenyl-2,4,6-heptatrienoylhydroxamic acid] | absent | p53 independent p21 activation was observed | increasing the level of histone acetylation | induced Bax mitochondrial translocation and cleavage | cell cycle arrest, primarily at G2/M interface | induction of selective degradation of HDAC2 | increases the levels of total p53 | p53-dependent increase in p21 levels | increased the steady state level of cytosolic Bax | not Lys320 | stabilizes the acetylation of p53 at amino acids Lys373 and Lys382 | – | – | –
O=C(CCCCCCC(=O)Nc1ccccc1)NO [SAHA, suberoylanilide hydroxamic acid] | – | – | – | – | – | – | – | – | – | – | – | prevent the formation of tumors in mice | HDAC activity is inhibited | –
CC(/C=C/C(=O)NO)=C\[C@@H](C)C(=O)c1ccc(N(C)C)cc1 [TSA, trichostatin A] | absent | p53 independent p21 activation was observed | – | nor did it affect Bax translocation and cleavage | induced p21 and cell cycle arrest | – | – | induced p21 | did not alter Bax levels | – | – | prevent the formation of tumors in mice | HDAC activity is inhibited | causes arrest of rat fibroblasts at the G1 and G2 phases of the cell cycle
